Measurements from patent publication US9315458B2, “Nitrogen-containing heterocyclic compound” (Takeda Pharmaceutical Company Limited, priority 2014, dated 2016).

Molecular target: T1, human M1 receptor (hCHRM1) (Homo sapiens, UniProt P11229)
T1 construct: expressed in transfected cells
T1 sequence (P11229 1-460): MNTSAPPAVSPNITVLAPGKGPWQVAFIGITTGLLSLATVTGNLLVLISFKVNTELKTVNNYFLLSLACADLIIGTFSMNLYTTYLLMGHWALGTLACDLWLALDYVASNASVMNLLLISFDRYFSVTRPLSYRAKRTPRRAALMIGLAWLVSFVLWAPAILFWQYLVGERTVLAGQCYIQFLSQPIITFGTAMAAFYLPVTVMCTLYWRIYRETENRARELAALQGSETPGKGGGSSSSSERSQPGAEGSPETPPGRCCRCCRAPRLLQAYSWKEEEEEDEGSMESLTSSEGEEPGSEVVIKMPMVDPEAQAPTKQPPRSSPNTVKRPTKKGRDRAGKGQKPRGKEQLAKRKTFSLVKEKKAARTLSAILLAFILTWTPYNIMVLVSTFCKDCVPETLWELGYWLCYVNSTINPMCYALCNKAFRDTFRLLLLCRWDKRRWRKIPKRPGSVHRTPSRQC
Assay: Measurement of M1 receptor positive allosteric modulator (M1PAM) activity, calcium fluorescence (FLIPRtetra) with acetylcholine at EC20
Type: cell-based
Details: for activity (%) at 10 μM: 10 μM test compound, 100% = acetylcholine 1 μM, 0% = DMSO, acetylcholine at EC20; for EC50: inflection point of concentration-dependent curve, CHO-K1 cells expressing hCHRM1, acetylcholine at EC20 (final 0.6-0.8 nM), read-out: IP value
Protocol: The activity of a test compound in the presence of acetylcholine at EC20 concentration (final concentration 0.6-0.8 nM), which affords an action corresponding to about 20% of the maximum activity, was measured as PAM activity. The method is as follows. CHO-K1 cells stably expressing a human M1 receptor (hCHRM1) were plated on a 384-well black clear bottom plate (BD Falcon) at 5,000 cells/well, and cultured in an incubator at 37° C., 5% CO2 for 1 day. The medium in the cell plate was removed, and assay buffer A (Recording medium (DOJINDO LABORATORIES), 0.1% BSA (Wako Pure Chemical Industries, Ltd.), 2.5 μg/mL Fluo-4 AM (DOJINDO LABORATORIES), 0.08% Pluronic F127 (DOJINDO LABORATORIES), 1.25 mM probenecid (DOJINDO LABORATORIES)) containing a calcium indicator was added at 30 μL/well. The cells were left standing in the incubator at 37° C., 5% CO2 for 30 min, and further left standing at room temperature for 30 min. A test compound prepared by diluting with assay buffer B (HBSS (Invitrogen), 20 mM HEPES (Invitrogen), 0.1% BSA) containing 2.4-3.2 nM acetylcholine was added at 10 μL/well, and the fluorescence was measured by FLIPRtetra (Molecular Devices) for 1 min every 1 second. With the definition that the amount of change in the fluorescence on addition of acetylcholine (final concentration 1 μM) is 100% and that on addition of DMSO instead of a test compound is 0%, the activity (%) of the test compound was calculated, and the inflection point in the concentration-dependent curve of the test compound was calculated as IP values.

SMILES	activity (%) at 10 μM [%]	EC50 [nM]
Cn1cc(-c2ccc(Cc3ccc4c(c3)C(=O)N([C@H]3CCCC[C@@H]3O)C4)cn2)cn1 (racemic) [Example 1, rac-2-(trans-2-hydroxycyclohexyl)-6-((6-(1-methyl-1H-pyrazol-4-yl)pyridin-3-yl)methyl)isoindolin-1-one]	111	750
O=C1c2cc(Cc3ccc(-n4cccn4)cc3)c(Cl)cc2CN1[C@H]1CCCC[C@@H]1O (racemic) [Example 2, rac-5-chloro-2-(trans-2-hydroxycyclohexyl)-6-(4-(1H-pyrazol-1-yl)benzyl)isoindolin-1-one]	109	86
COc1cc2c(cc1Cc1ccc(-n3cccn3)cc1)C(=O)N([C@H]1CCCC[C@@H]1O)C2 (racemic) [Example 3, rac-2-(trans-2-hydroxycyclohexyl)-5-methoxy-6-(4-(1H-pyrazol-1-yl)benzyl)isoindolin-1-one]	106	15
Cc1cc2c(cc1Cc1ccc(-c3cn(C)nc3C)nc1)C(=O)N([C@H]1CCCC[C@@H]1O)C2 (racemic) [Example 5, rac-6-((6-(1,3-dimethyl-1H-pyrazol-4-yl)pyridin-3-yl)methyl)-2-(trans-2-hydroxycyclohexyl)-5-methylisoindolin-1-one]	102	8.2
Cc1cc(-c2ccc(Cc3cc4c(cc3C)CN([C@H]3CCCC[C@@H]3O)C4=O)cn2)ccn1 (racemic) [Example 6, rac-2-(trans-2-hydroxycyclohexyl)-5-methyl-6-((2′-methyl-2,4′-bipyridin-5-yl)methyl)isoindolin-1-one]	101	5.3
O=C1c2cc(Cc3ccc(-n4cccn4)cc3)c(C3CC3)cc2CN1[C@H]1CCC[C@@H]1O (racemic) [Example 9, rac-5-cyclopropyl-2-(trans-2-hydroxycyclopentyl)-6-(4-(1H-pyrazol-1-yl)benzyl)isoindolin-1-one]	102	43
O=C1c2cc(Cc3ccc(-n4cccn4)cc3)c(C(F)(F)F)c(Cl)c2CN1[C@H]1CCCC[C@@H]1O (racemic) [Example 10, rac-4-chloro-2-(trans-2-hydroxycyclohexyl)-6-(4-(1H-pyrazol-1-yl)benzyl)-5-(trifluoromethyl)isoindolin-1-one]	106	66
Cc1c(C#N)c(Cc2ccc(-n3cccn3)cc2)cc2c1CN([C@H]1CCCC[C@@H]1O)C2=O (racemic) [Example 11, rac-2-(trans-2-hydroxycyclohexyl)-4-methyl-1-oxo-6-(4-(1H-pyrazol-1-yl)benzyl)isoindoline-5-carbonitrile]	105	13
COc1c(Cc2ccc(-n3cccn3)cc2)cc2c(c1Cl)CN([C@H]1CCCC[C@@H]1O)C2=O (racemic) [Example 12, rac-4-chloro-2-(trans-2-hydroxycyclohexyl)-5-methoxy-6-(4-(1H-pyrazol-1-yl)benzyl)isoindolin-1-one]	91	7.7
Cc1c(Cc2ccc(-c3cnn(C)c3)nc2)cc2c(c1C)CN([C@H]1CCCC[C@@H]1O)C2=O (racemic) [Example 28, rac-2-(trans-2-hydroxycyclohexyl)-4,5-dimethyl-6-((6-(1-methyl-1H-pyrazol-4-yl)pyridin-3-yl)methyl)isoindolin-1-one]	106	4.8
Cc1c(Cc2ccc(-n3cccn3)cc2)cc2c(c1C)CN([C@H]1CCCC[C@@H]1O)C2=O (racemic) [Example 29, rac-2-(trans-2-hydroxycyclohexyl)-4,5-dimethyl-6-(4-(1H-pyrazol-1-yl)benzyl)isoindolin-1-one]	102	9.5
Cc1cc2c(cc1Cc1ccc(-n3cccn3)cc1)C(=O)N([C@H]1CCCC[C@@H]1O)C2 (racemic) [Example 32, rac-2-(trans-2-hydroxycyclohexyl)-5-methyl-6-(4-(1H-pyrazol-1-yl)benzyl)isoindolin-1-one]	99	5.6
Cc1cc2c(cc1Cc1ccc(-n3cccn3)cc1)C(=O)N([C@H]1CCC[C@@H]1O)C2 (racemic) [Example 33, rac-2-(trans-2-hydroxycyclopentyl)-5-methyl-6-(4-(1H-pyrazol-1-yl)benzyl)isoindolin-1-one]	95	37
Cc1c(Cc2ccc(-n3cccn3)cc2)cc2c(c1C)CN([C@H]1CCC[C@@H]1O)C2=O (racemic) [Example 34, rac-2-(trans-2-hydroxycyclopentyl)-4,5-dimethyl-6-(4-(1H-pyrazol-1-yl)benzyl)isoindolin-1-one]	108	18
Cc1c(Cc2ccc(-n3cccn3)cc2)cc2c(c1C)CN([C@H]1COCC[C@@H]1O)C2=O (racemic) [Example 35, rac-2-(trans-4-hydroxytetrahydro-2H-pyran-3-yl)-4,5-dimethyl-6-(4-(1H-pyrazol-1-yl)benzyl)-2,3-dihydro-1H-isoindol-1-one]	103	3.9
Cc1cc2c(cc1Cc1ccc(-c3cn(C)nc3C)nc1)C(=O)N([C@H]1CCC[C@@H]1O)C2 (racemic) [Example 40, rac-6-((6-(1,3-dimethyl-1H-pyrazol-4-yl)pyridin-3-yl)methyl)-2-(trans-2-hydroxycyclopentyl)-5-methylisoindolin-1-one]	97	37
Cc1cc(-c2ccc(Cc3cc4c(cc3C)CN([C@H]3CCC[C@@H]3O)C4=O)cn2)ccn1 (racemic) [Example 41, rac-2-(trans-2-hydroxycyclopentyl)-5-methyl-6-((2′-methyl-2,4′-bipyridin-5-yl)methyl)isoindolin-1-one]	97	30
Cc1cc2c(cc1Cc1ccc(-c3ccn(C)n3)nc1)C(=O)N([C@H]1CCCC[C@@H]1O)C2 (racemic) [Example 42, rac-2-(trans-2-hydroxycyclohexyl)-5-methyl-6-((6-(1-methyl-1H-pyrazol-3-yl)pyridin-3-yl)methyl)isoindolin-1-one]	115	9.2
Cc1cc2c(cc1Cc1ccc(-c3ccn(C)n3)nc1)C(=O)N([C@H]1CCC[C@@H]1O)C2 (racemic) [Example 43, rac-2-(trans-2-hydroxycyclopentyl)-5-methyl-6-((6-(1-methyl-1H-pyrazol-3-yl)pyridin-3-yl)methyl)isoindolin-1-one]	110	98
Cc1cc2c(cc1Cc1ccc(-c3cn(C)nn3)cc1)C(=O)N([C@H]1CCCC[C@@H]1O)C2 (racemic) [Example 47, rac-2-(trans-2-hydroxycyclohexyl)-5-methyl-6-(4-(1-methyl-1H-1,2,3-triazol-4-yl)benzyl)isoindolin-1-one]	99	3
Cc1cc2c(cc1Cc1ccc(-c3cn(C)nn3)cc1)C(=O)N([C@H]1CCC[C@@H]1O)C2 (racemic) [Example 48, rac-2-(trans-2-hydroxycyclopentyl)-5-methyl-6-(4-(1-methyl-1H-1,2,3-triazol-4-yl)benzyl)isoindolin-1-one]	102	31
Cc1cc2c(cc1Cc1ccc(-c3ccn(C)n3)cc1)C(=O)N([C@H]1CCC[C@@H]1O)C2 (racemic) [Example 51, rac-2-(trans-2-hydroxycyclopentyl)-5-methyl-6-(4-(1-methyl-1H-pyrazol-3-yl)benzyl)isoindolin-1-one]	86	42
Cc1cc2c(cc1Cc1ccc(-c3cn(C)nn3)cc1F)C(=O)N([C@H]1CCC[C@@H]1O)C2 (racemic) [Example 53, rac-6-(2-fluoro-4-(1-methyl-1H-1,2,3-triazol-4-yl)benzyl)-2-(trans-2-hydroxycyclopentyl)-5-methylisoindolin-1-one]	103	28
Cc1cc2c(cc1Cc1ccc(-c3cn(C)nc3C)cc1)C(=O)N([C@H]1CCC[C@@H]1O)C2 (racemic) [Example 55, rac-6-(4-(1,3-dimethyl-1H-pyrazol-4-yl)benzyl)-2-(trans-2-hydroxycyclopentyl)-5-methylisoindolin-1-one]	101	98
